Target: T1, NaV1.5 (Homo sapiens, UniProt Q14524, Y1767A)
T1 construct: gene SCN5A
Assay: cell-based
Details: CHO, read-out: % reduction at 100 μmol/L

T1 sequence (Q14524 whole entry Y1767A): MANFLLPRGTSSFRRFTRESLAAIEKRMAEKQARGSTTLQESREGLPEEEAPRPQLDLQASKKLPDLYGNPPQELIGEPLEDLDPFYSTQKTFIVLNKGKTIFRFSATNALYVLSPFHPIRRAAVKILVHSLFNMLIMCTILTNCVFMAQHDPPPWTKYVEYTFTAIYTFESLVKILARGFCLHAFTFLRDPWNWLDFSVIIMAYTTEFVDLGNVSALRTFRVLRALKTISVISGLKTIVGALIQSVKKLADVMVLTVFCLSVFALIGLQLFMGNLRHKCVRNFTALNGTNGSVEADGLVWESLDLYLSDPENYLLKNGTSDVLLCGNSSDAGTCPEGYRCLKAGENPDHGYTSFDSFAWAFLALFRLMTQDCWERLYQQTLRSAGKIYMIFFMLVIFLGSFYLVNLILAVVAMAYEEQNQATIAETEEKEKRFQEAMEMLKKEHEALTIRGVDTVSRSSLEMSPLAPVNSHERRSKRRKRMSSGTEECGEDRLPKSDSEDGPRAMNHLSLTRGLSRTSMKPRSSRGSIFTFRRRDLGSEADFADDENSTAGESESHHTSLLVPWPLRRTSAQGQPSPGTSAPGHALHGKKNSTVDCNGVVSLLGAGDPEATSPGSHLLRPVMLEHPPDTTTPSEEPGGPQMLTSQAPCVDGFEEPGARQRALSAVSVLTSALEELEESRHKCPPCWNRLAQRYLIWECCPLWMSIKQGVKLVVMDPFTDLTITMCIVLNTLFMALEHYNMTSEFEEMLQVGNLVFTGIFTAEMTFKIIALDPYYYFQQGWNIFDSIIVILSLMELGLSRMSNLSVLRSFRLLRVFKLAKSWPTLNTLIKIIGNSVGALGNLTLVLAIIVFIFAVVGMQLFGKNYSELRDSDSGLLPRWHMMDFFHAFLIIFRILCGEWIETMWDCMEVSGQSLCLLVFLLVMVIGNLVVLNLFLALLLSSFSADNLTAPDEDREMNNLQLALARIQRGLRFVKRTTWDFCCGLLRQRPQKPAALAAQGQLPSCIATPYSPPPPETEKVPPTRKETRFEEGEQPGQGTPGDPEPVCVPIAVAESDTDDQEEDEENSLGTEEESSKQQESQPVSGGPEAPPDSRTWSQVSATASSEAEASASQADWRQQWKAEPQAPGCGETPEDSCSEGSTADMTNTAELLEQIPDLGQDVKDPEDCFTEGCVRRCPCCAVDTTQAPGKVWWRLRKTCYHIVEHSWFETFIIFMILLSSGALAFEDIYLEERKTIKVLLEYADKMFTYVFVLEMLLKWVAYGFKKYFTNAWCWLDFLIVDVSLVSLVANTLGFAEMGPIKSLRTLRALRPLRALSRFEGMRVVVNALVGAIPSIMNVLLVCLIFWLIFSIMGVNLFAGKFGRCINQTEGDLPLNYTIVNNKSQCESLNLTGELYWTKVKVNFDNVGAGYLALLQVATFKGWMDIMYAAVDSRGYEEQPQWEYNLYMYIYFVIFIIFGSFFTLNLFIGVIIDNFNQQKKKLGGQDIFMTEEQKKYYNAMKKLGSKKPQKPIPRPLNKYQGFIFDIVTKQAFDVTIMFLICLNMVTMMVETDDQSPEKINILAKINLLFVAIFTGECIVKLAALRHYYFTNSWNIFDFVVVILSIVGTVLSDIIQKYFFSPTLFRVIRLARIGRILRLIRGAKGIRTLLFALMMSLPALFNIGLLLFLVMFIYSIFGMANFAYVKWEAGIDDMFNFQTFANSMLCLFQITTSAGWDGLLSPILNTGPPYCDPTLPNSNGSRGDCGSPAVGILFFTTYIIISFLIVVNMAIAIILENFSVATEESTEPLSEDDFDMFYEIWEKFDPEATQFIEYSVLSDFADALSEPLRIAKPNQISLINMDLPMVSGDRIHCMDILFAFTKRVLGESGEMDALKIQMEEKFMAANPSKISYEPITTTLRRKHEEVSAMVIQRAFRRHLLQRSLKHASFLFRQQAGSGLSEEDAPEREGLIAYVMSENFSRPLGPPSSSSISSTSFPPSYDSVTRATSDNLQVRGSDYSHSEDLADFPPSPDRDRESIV

SMILES: CCOc1ccc(Cc2cc([C@@H]3O[C@H](CO)[C@@H](O)[C@H](O)[C@H]3O)ccc2Cl)cc1 [dapagliflozin]
- inhibition at 100 µM: 68.3 ± 4.2%

Reference: article PMC10837223, “Acute antiarrhythmic effects of SGLT2 inhibitors–dapagliflozin lowers the excitability of atrial cardiomyocytes” (Basic Research in Cardiology, 2024)
